Experimental data reported in patent US20040266862A1, “Method of improving animal tissue quality by supplementing the animal diet with mixed tocotrienols” (priority 2003, published 2004).
Marks after values point to notes of the source that are not given here.

Legend:
Type in all cases: in vivo
[1] = tested on: swine; assay: 2002 swine feed test: 24 hour raw pork loin quality; set-up: Marbling / Fat Firmness / Color Score: scale not given here
Excerpt: (§1) Applicants conducted a second swine feeding trial to further determine the effects on meat quality of supplementation of a swine diet with alpha-tocopherol (AT), gamma-tocopherol (GT) or mixed tocotrienols (MT). Seventy-two barrows (˜75 lbs.) were transported to the Pioneer Livestock Nutrition Center (PLNC) and randomly placed into individual pens with water and feed provided ad libitum. The pigs received a common diet for seven days. On the eighth day the pigs were weighed individually and a uniform group of sixty pigs with an average body weight of about 75 pounds was selected. The pigs were randomly assigned one of five dietary treatments with 12 pigs per treatment. The feeding trial was initiated on Mar. 12, 2002 and ended on Jun. 19, 2002.
(§2) The pigs were fed a corn-soybean meal diet formulated to provide adequate levels of all nutrients. In addition, one of five dietary treatments was assigned to each group: control, 300 ppm AT, 450 ppm GT, 150 ppm MT, and 300 ppm MT. To each diet a corn oil premix and a ground corn premix were added with the corn oil premix as a carrier for the supplemental tocopherols and the ground corn premix as the carrier for the MT. The MT supplement was obtained commercially from Fuji Chemical Industries (U.S.A.) Inc. of Robbinsville, N.J., and contained 7.5% alpha-, 12.3% gamma- and 3.0% delta-tocotrienol, as well as 7.2% alpha-tocopherol.
The pigs were harvested in June 2002 when they had reached an average weight of about 245 pounds. Following a twelve-hour feed withdrawal, the pigs were transported to a commercial processing facility. At the commercial processing facility, individual hot carcass weight, back fat depth and loin depth were measured and recorded on the day of slaughter. Loin pH, loin color value (Minolta L*), Marbling and fat firmness were recorded 24 hours post mortem.

[2] = tested on: swine; assay: 2002 swine feed test: 21-day raw pork loin quality measurements; set-up: key to Hunter a: Hunter a; more positive = redder; key to Hunter b: Hunter b; more positive = more yellow; Hunter a* / Hunter b*: scale not given here; details: for Chop purge, % / Cooking Loss, %: 21-day pork loin; for Hunter L / Hunter L* / Hunter a / Hunter a* / Hunter b / Hunter b* / Loin pH / Loin purge, %: 21-day raw pork loin; for Instron force, kg: force to pierce loin chop
Excerpt: as §1, §2
Approximately twenty-one days after slaughter the loins were removed from vacuum bags and weighed. The liquid that had accumulated in the bags during storage was measured to calculate 21-day purge. Loin pH was measured at three locations by carefully inserting a glass probe into the mid-point of the anterior, mid and posterior thirds of each loin. As expected, measurement location (blade, chop or shoulder) affected loin pH, Hunter L, L* and a* values.
The Hunter L, a and b values were measured with a Hunter laboratory system for color evaluation. Hunter L is a measurement of the lightness of an object, and may be thought of as the light reflectance from the surface of an object. Thus, a higher Hunter L value indicates a lighter color, and an L value of 100 would indicate prefect reflectance from the surface. (The white standard has an L value of 97.21.) An increasingly positive Hunter a value indicates a redder color, and an increasingly positive Hunter b value indicates a more yellow color.

[3] = tested on: chickens; assay: 2002 poultry feed test: TBARS content of raw ground chicken breasts; details: 300 ppm in diet
Excerpt: (§3) Applicants also assessed the effects of antioxidant supplementation on meat quality in an experiment in which meat from chickens fed one of four dietary treatments was compared. On Jul. 25, 2002, day-old chicks were obtained from a commercial company. The birds were housed in a brooder until Aug. 11, 2002. On Aug. 11, forty-eight birds were randomly allocated to one of four pens (twelve birds per pen). Birds in each pen were offered ad libitum access to one of four treatment diets: control, 300 ppm AT, 300 ppm GT or 150 ppm MT. The MT premix contained a commercially available MT supplement (7.5% alpha-, 12.3% gamma- and 3.0% delta-tocotrienol and 7.2% alpha-tocopherol) mixed with ground corn as the carrier. The total MT premix (ground corn plus MT supplement) represented 2.5% w/w of the finished MT supplemented feed.
(§4) On Sep. 13, 2002 (seven weeks of age) the birds were harvested, identified and frozen at −20C. The birds were stored frozen at −20C for 136-159 days post slaughter. On days 136, 156, 157, 158 and 159 (where available) two birds per dietary treatment were thawed in cold water. Meat was removed from the breasts (pectoralis major muscles) and thighs. Breast meat from each chicken was ground through a 3 mm disc in a Krups Butcher Shop 150W Professional Power Meat Grinder. Thigh meat from two chickens was combined (for days 156, 157, 158 and 159; day 136 thigh meat was kept separate for each bird) and ground in a similar manner. Patties were made (10 g for breast; 60 g for thighs) using a 100×15 mm Petri dish as a mold.
(§5) Patties were quartered and each quarter was stored at 2.2C for a designated period of time. One quarter was used per sampling period. Sampling periods for the raw ground meat were day 0, day 3, day 7 and day 10. Thiobarbituric acid reacting substances (TBARS) analyses was performed on the raw ground chicken breasts and thighs according to the procedure of Ahn, D. U., D. G. Olson, C. Jo, X. Chen, C. Wu, and J. I. Lee, “Effect of Muscle Type, Packaging, and Irradiation on Lipid Oxidation, Volatile Production and Color in Raw Pork Patties”, Meat Sci. 49:27-39 (1998).

[4] = tested on: chickens; assay: 2002 poultry feed test: TBARS content of raw ground chicken thighs; details: 300 ppm in diet
Excerpt: as §3, §4, §5

[5] = tested on: swine; assay: 2002 swine feed test: 24 hour raw pork loin quality

## Cc1c(C)c2c(c(C)c1O)CC[C@@](C)(CCC[C@H](C)CCC[C@H](C)CCCC(C)C)O2 [AT, alpha-tocopherol]
[1]; 300 ppm in diet
  Color Score: 3.2
  Fat Firmness: 2.3
  Hunter L*: 48.89
  Marbling: 2.1
[2]; 300 ppm in diet
  Chop purge, %: 1.97%
  Cooking Loss, %: 20.11%
  Hunter L: 46.68
  Hunter L*: 53.86
  Hunter a: 5.71
  Hunter a*: 6.76
  Hunter b: 8.60
  Hunter b*: 15.77
  Loin pH: 5.66
  Loin purge, %: 0.99%
  Instron force, kg: 4.98^b kg
[3]; Day 0 at 2.2C
  TBARS content: 0.4569 mg Malonaldehyde/kg sample
[3]; Day 3 at 2.2C
  TBARS content: 0.1214 mg Malonaldehyde/kg sample
[3]; Day 7 at 2.2C
  TBARS content: 0.1243 mg Malonaldehyde/kg sample
[3]; Day 10 at 2.2C
  TBARS content: 0.1151^b mg Malonaldehyde/kg sample
[4]; Day 0 at 2.2C
  TBARS content: 0.3438 mg Malonaldehyde/kg sample
[4]; Day 3 at 2.2C
  TBARS content: 0.1810 mg Malonaldehyde/kg sample
[4]; Day 7 at 2.2C
  TBARS content: 0.2448 mg Malonaldehyde/kg sample
[4]; Day 10 at 2.2C
  TBARS content: 0.4482 mg Malonaldehyde/kg sample
[5]; 300 ppm in diet
  PH, hour 22: 5.86

## Cc1c(O)cc2c(c1C)O[C@](C)(CCC[C@H](C)CCC[C@H](C)CCCC(C)C)CC2 [GT, gamma-tocopherol]
[1]; 450 ppm in diet
  Color Score: 3.1
  Fat Firmness: 2.0
  Hunter L*: 48.81
  Marbling: 1.9
[2]; 450 ppm in diet
  Chop purge, %: 2.40%
  Cooking Loss, %: 20.27%
  Hunter L: 45.47
  Hunter L*: 52.53
  Hunter a: 6.00
  Hunter a*: 7.14
  Hunter b: 8.41
  Hunter b*: 15.61
  Loin pH: 5.67
  Loin purge, %: 1.16%
  Instron force, kg: 5.53^a kg
[3]; Day 0 at 2.2C
  TBARS content: 0.3022 mg Malonaldehyde/kg sample
[3]; Day 3 at 2.2C
  TBARS content: 0.1926 mg Malonaldehyde/kg sample
[3]; Day 7 at 2.2C
  TBARS content: 0.0860 mg Malonaldehyde/kg sample
[3]; Day 10 at 2.2C
  TBARS content: 0.1428^b mg Malonaldehyde/kg sample
[4]; Day 0 at 2.2C
  TBARS content: 0.2493 mg Malonaldehyde/kg sample
[4]; Day 3 at 2.2C
  TBARS content: 0.2010 mg Malonaldehyde/kg sample
[4]; Day 7 at 2.2C
  TBARS content: 0.1626 mg Malonaldehyde/kg sample
[4]; Day 10 at 2.2C
  TBARS content: 0.3557 mg Malonaldehyde/kg sample
[5]; 450 ppm in diet
  PH, hour 22: 5.76
